# “And” between values parts separate entries of the source, which are not always exact repeats. Equal values may be shown once. Read-outs that look alike come from different tables or passages of the source.
# How the values were obtained:
# [1] = Differential pulse voltammetry in THF vs Ag/AgCl; type: physicochemical; conditions: DPV peak
# Method: ^1H NMR spectra were recorded on a Mercury 300 spectrometer with chemical shifts referenced to the protonated solvent residue. Mass spectrometry data (electrospray ionization, ESI) were recorded at the Laboratory for Biological Mass Spectrometry at Texas A&M University using an MDS Series Qstar Pulsar with a spray voltage of 5 kV. Elemental analyses were performed by Robertson Microlit Laboratories, Inc., Madison, N.J. on crystalline samples that were previously washed with cold hexanes and dried overnight under vacuum. Infrared spectra were recorded in a Perkin-Elmer 16PC FT IR spectrophotometer using KBr pellets. Electronic spectra were recorded on a Shimadzu UV-2501 PC spectrophotometer. The differential pulse voltammograms were collected using a CH Instruments model-CHI620A electrochemical analyzer in a 0.1 M Bu^n4NPF6 solution in THF, using Pt working and auxiliary electrodes, a Ag/AgCl reference electrode, and a scan rate of 100 mV/s. All potential values are referenced to the Ag/AgCl electrode, and under the present experimental conditions, the E1/2 for the Fc^+/Fc couple consistently occurred at +440 mV.
# [2] = Gas-phase photoelectron spectroscopy (PES) of the δ bond ionization; type: physicochemical; conditions: for onset ionization energy (IEonset, PESonset): first ionization band; for vertical ionization energy (VIE, PESvertical): position of main Gaussian peak
# Method: The gas-phase PES of W2(TMhpp)4 and W2(TEhpp)4 were recorded using an instrument that features a 36-cm radius, 8-cm gap hemispherical analyzer, and custom-designed excitation source, sample cells, detection and control electronics, and methods that have been described, for example, in Rev. Sci. Instrum. 1986, 57, 2366 and J. Am. Chem. Soc. 1998, 120, 3382-3386. The temperature was monitored using a “K”-type thermocouple passed through a vacuum feed through and attached directly to the sample cell. Samples of W2(TMhpp)4 and W2(TEhpp)4 were loaded into stainless steel cells and placed in the instrument using rigorous air-sensitive techniques. The data collection focused on determining the δ bond ionization energy. To avoid decomposition in the sample chamber of the cell, ampoules containing the samples were broken off and placed directly in the ionization chamber.
# Complete spectra were collected every few minutes.
# The ^2P3/2 peak of argon at 15.76 eV ionization energy is typically used for internal energy calibration, but over the course of the experiment sensitivity to the ^2P3/2 peak of Ar was lost. This often happens with molecules that are strong reductants, presumably because of the very large change in work function of the spectrometer when the sample condenses on the spectrometer surfaces. At this point the lamp was adjusted to emit He II photons in addition to He I photons. This allowed observation of the He self-ionization (by He II photons) at an apparent binding energy of 4.99 eV in the He I spectrum. This very sharp line is a convenient internal energy calibrant and is preferable for the calibration of low-energy ionizations. The resolution, as measured by the Ar peak before it was no longer visible, was approximately 0.030 eV. The resolution for the W2(TMhpp)4 and W2(TEhpp)4 experiments, as measured by the He self-ionization, was 71 meV and 88 meV, respectively. Over the course of two separate data collections of W2(TMhpp)4, approximately 800 counts of the full He I spectrum (Graphic S1) and an additional 400 counts of a close-up on the δ bond ionization were collected. For W2(TEhpp)4 approximately 400 counts of the δ bond ionization were collected.
# The ionization bands are represented analytically with asymmetric Gaussian peaks. As is typical for the first ionization bands of M2(hpp)4 molecules, a weak shoulder is observed on the high ionization energy side of the peak that necessitates the use of a second asymmetric Gaussian component to reasonably account for the total contour of the ionization intensity. The additional ionization intensity on the high ionization energy side of the first band is ascribed to the different puckered conformations that the hpp ligands can adopt in the molecules. […]
# [3] = Solubility in dry organic solvents; type: physicochemical
# [4] = reported value for comparison, cited from earlier work; for reported E1/2 / observed peak position for W2^5+/4+: THF
# [5] = vacuum
# [6] = comparison value; cited from earlier work
# [7] = cited from earlier work
# [8] = Ionization energies of comparison substances; type: physicochemical; conditions: difference versus compounds 3 and 4
# [9] = Literature potentials and solvation energy of comparison substances; type: physicochemical; conditions: difference versus compounds 3 and 4
# [10] = common dry solvents such as THF, toluene, and benzene
# [11] = non-halogenated, non-protonated solvents such as THF, toluene, benzene and even hexanes
compound,measurement,setting,value
"CC1(C)CN2CC(C)(C)C[N+]3=C2[N](C1)[W-2]124([Cl])[N]5CC(C)(C)CN6CC(C)(C)C[N+](=C65)[W-2]31([Cl])([N+]1=C3N(CC(C)(C)C[N]32)CC(C)(C)C1)[N+]1=C2N(CC(C)(C)C[N]24)CC(C)(C)C1 [compound 1, W2(TMhpp)4Cl2]","E1/2(1), W2^6+/5+ process",[1],−0.99 V
same,"E1/2(2), W2^5+/4+ process",[1],−1.84 V
"C1CN2CCC[N+]3=C2[N](C1)[W-2]124[N]5CCCN6CCC[N+](=C65)[W-2]31([N+]1=C3N(CCC[N]32)CCC1)[N+]1=C2N(CCC[N]24)CCC1 [W2(hpp)4, reference compound]","onset ionization energy (IEonset, PESonset)",[2],3.51 eV and 3.51±0.05 eV
same,"vertical ionization energy (VIE, PESvertical)",[2],3.76 eV
same,solubility,[3]; non-reactive organic solvents,poor solubility
same,reported E1/2 / observed peak position for W2^5+/4+,[4],−1.81 V
same,reported E1/2 for W2^6+/5+,[4],−0.97 V
C1CN=C2[N-]CCCN2C1.C1CN=C2[N-]CCCN2C1.C1CN=C2[N-]CCCN2C1.C1CN=C2[N-]CCCN2C1.FC(F)(F)c1cc([B-](c2cc(C(F)(F)F)cc(C(F)(F)F)c2)(c2cc(C(F)(F)F)cc(C(F)(F)F)c2)c2cc(C(F)(F)F)cc(C(F)(F)F)c2)cc(C(F)(F)F)c1.FC(F)(F)c1cc([B-](c2cc(C(F)(F)F)cc(C(F)(F)F)c2)(c2cc(C(F)(F)F)cc(C(F)(F)F)c2)c2cc(C(F)(F)F)cc(C(F)(F)F)c2)cc(C(F)(F)F)c1.[W+3]#[W+3] [W2(hpp)4^2+ (TFPB^−)2],reported E1/2 / observed peak position for W2^5+/4+,[4],−1.81 V
W2(TEhpp)4 [compound 4],"onset ionization energy (IEonset, PESonset)",[2],3.40±0.05 eV
same,"vertical ionization energy (VIE, PESvertical)",[2],3.71±0.03 eV
same,solubility properties compared to decamethylcobaltocene,[3],compare very favorably
same,solubility,[3]; [10],very soluble
same,solubility,[3]; hexanes,significantly more soluble
same,solubility,[3]; [11],very soluble
same,decomposition during PES measurement,"[5]; 317-340° C., about 1 h",In neither case was there any evidence of decomposition
same,decomposition during PES measurement,"[5]; 317-340° C., about 1 h, listed as W2(TEhpp)4",without evidence of decomposition
"CCC1(CC)CN2CC(CC)(CC)C[N+]3=C2[N](C1)[W-2]124([Cl])[N]5CC(CC)(CC)CN6CC(CC)(CC)C[N+](=C65)[W-2]31([Cl])([N+]1=C3N(CC(CC)(CC)C[N]32)CC(CC)(CC)C1)[N+]1=C2N(CC(CC)(CC)C[N]24)CC(CC)(CC)C1 [compound 2, W2(TEhpp)4Cl2]","E1/2(1), W2^6+/5+ process",[1],−0.99 V
same,"E1/2(2), W2^5+/4+ process",[1],−1.90 V
[Cs] [cesium],ionization energy (IE),[6],3.89 eV
W2(TMhpp)4 [compound 3],solubility properties compared to decamethylcobaltocene,[3],compare very favorably
same,solubility,[3]; [10],very soluble
same,solubility,[3]; hexanes,Some solubility
same,solubility,[3]; [11],very soluble
same,decomposition during PES measurement,"[5]; 216 to 271° C., 2½ h",In neither case was there any evidence of decomposition
same,decomposition during PES measurement,"[5]; 216 to 271° C., 2½ h, listed as W2(TMhpp)4",without evidence of decomposition
"[K] [K, potassium]","E1/2, literature",[7]; in THF,−2.66 V
decamethylcobaltocene [(Cp*)2Co],ionization energy greater than that of compounds 3 and 4,[8],more than 1 eV
same,oxidation potential less negative than that of compounds 3 and 4,[9],approximately 0.4 V
same,ionization energy (IE),[6],4.705 eV
same,oxidation potential,[7]; comparison value,−1.47 V

# Source: patent US9643988B2, “Compounds having low ionization energy” (THE ARIZONA BOARD OF REGENTS ON BEHALF OF THE UNIVERSITY OF …, priority 2013, dated 2017)
